Holding throughout (test): Cytotoxicity assay (MTS, 72 hours)
Data set [1] has as its system WM793. Type of data set: cell-based, human. As for the experimental part: (§1) Tumor cell lines were maintained in DMEM with 10% fetal bovine serum (FBS), 100 microg/ml streptomycin, and 100 IU/ml penicillin in 5% CO2 at 37° C.
WM793 human melanoma tumor cell lines were used from different stages of progression and their biological and molecular analyses. See Satyamoorthy et al. (1997).
(§2) For the cytotoxicity assays, 1,500 tumor cells were plated into 96-well flat-bottom tissue culture plates in complete medium (see Tables 2 and 3). After 20 hours fresh media containing different concentrations of compounds disclosed herein added. Cell number was counted after 72 hours by using MTS assay (Promega CellTiter AQ Non-Radioactive Cell Proliferation Assay kit, Madison, Wis., USA) by measuring absorbance at 490 nm with a 96-well plate reader. Data are presented as IC50 values derived from relative inhibition of proliferation plus SD of eight measurements. The number of cells in the presence of DMSO was taken as 100%.

In data set [2] the test system is Colo357-FG. Format: cell-based, human. On the procedure:
as §1
Colo357-FG and Colo357-L3: Colo357-FG, a fast-growing variant produced regional lymph node metastasis in 58% of nude mice after subcutaneous implantation and growth. It also produced hepatic metastasis in 64% and pulmonary metastasis in 43% of nude mice after intrasplenic implantation of tumor cells. See Vezeridis et al. (1990).
as §2

Data set [3] concerns HD2. Format: cell-based. The following applies: Table 3, Myeloma. On the procedure:
After 20 hours fresh media containing different concentrations of compounds disclosed herein added. Cell number was counted after 72 hours by using MTS assay (Promega CellTiter AQ Non-Radioactive Cell Proliferation Assay kit, Madison, Wis., USA) by measuring absorbance at 490 nm with a 96-well plate reader. Data are presented as IC50 values derived from relative inhibition of proliferation plus SD of eight measurements. The number of cells in the presence of DMSO was taken as 100%.

Data set [4] has as its system SK-MEL-28. Type of data set: cell-based. On the procedure: as §1, §2
Data set [5] deals with WM35. Format: cell-based. As for the experimental part:
as §1, §2

The test system of data set [6] is 231-MB. Format: cell-based. The following applies: Table 3, Breast. As for the experimental part:
as §1, §2

The test system of data set [7] is MIA-PaCa-2. Type of data set: cell-based. As for the experimental part:
as §1, §2

Data set [8] has as its system A375. Format: cell-based. As for the experimental part:
as §1, §2

In data set [9] the test system is SU.86.86. Type of data set: cell-based. On the procedure:
as §1, §2

The test system of data set [10] is BT-58. Format: cell-based. The following applies: Table 3, Ependymoma. On the procedure:
as §1, §2

The subject of data set [11] is 4T1. Type of data set: cell-based. On the procedure:
as §1, §2

The test system of data set [12] is MDA-PATC-108. Format: cell-based. The following applies: Table 3, Panc. As for the experimental part: as §1, §2
For data set [13], the system named is HH. Format: cell-based. The following applies: Table 3, CTCL. As for the experimental part: as §1, §2
In data set [14] the test system is LNZ-428. Type of data set: cell-based. The following applies: Table 3, GBM. As for the experimental part:
as §1, §2

For data set [15], the system named is MDA-PATC-53. Format: cell-based. As for the experimental part: as §1, §2
The test system of data set [16] is Ovcar-5. Type of data set: cell-based. As for the experimental part:
as §1, §2

For data set [17], the system named is 231. Type of data set: cell-based. The following applies: Table 3, Breast. As for the experimental part:
as §1, §2

Data set [18] concerns HuT78. Format: cell-based. As for the experimental part: as §1, §2
Data set [19] deals with U87MG. Format: cell-based. The following applies: Table 3, GBM. On the procedure:
as §1, §2

Data set [20] concerns PC3. Format: cell-based. On the procedure:
as §1, §2

Data set [21] has as its system BT483. Format: cell-based. As for the experimental part:
as §1, §2

For data set [22], the system named is LN319. Type of data set: cell-based. The following applies: LN-319, Table 3, GBM. As for the experimental part: as §1, §2
Data set [23] relates to D423 enol. Type of data set: cell-based. The following applies: Table 3, GBM. On the procedure: as §1, §2
Data set [24] concerns MDA-PATC-153. Format: cell-based. The following applies: Table 3, Panc. As for the experimental part:
as §1, §2

For data set [25], the system named is D423. Format: cell-based. The following applies: Table 3, GBM. As for the experimental part: as §1, §2
For data set [26], the system named is MDA-PATC-148. Format: cell-based. The following applies: Table 3, Panc. As for the experimental part:
as §1, §2

[27] abbreviates: Homo sapiens, COLO 357/FG, 72 h, Table 2, Colo357-FG.
Where [28] appears, read: MDA-PATC53, 72 h, Table 2, MDA-PATC-53.

SMILES strings stand for the structures.

Broadly, the IC50 is the midpoint of a concentration-inhibition curve. Turning to `C[C@H](NC(=O)/C(C#N)=C/c1cccc(Br)n1)c1ccccc1` [WP1066, reference compound], the IC50 in [1] (Table 3, Melanoma) came to 2100 nM; in [2] (Table 2, Colo357-FG) it was 2100 nM; in data set [2] (Table 3, Panc), 2000 nM; in [3] it was 1700 nM; in data set [4] (Table 3, Melanoma), 2000 nM; in data set [5] (Table 3, Melanoma), 1300 nM. The IC50 amounted to 1200 nM in data set [6]; 1700 nM in data set [7] (Table 3, Panc); 1500 nM in [8] (Table 3, Melanoma); 2500 nM in data set [9] (Table 3, Panc); 1800 nM in data set [10]; 4400 nM in data set [11] (Table 3, Breast). For the same compound, the IC50 worked out at 2400 nM in data set [12]; 2300 nM in data set [13]; 1500 nM in data set [14]; 2400 nM in data set [15] (Table 2, MDA-PATC-53); 2400 nM in data set [15] (Table 3, Panc); 1700 nM in data set [16] (Table 3, Ovarian). Further, the IC50 in [17] turned out to be 4800 nM; in data set [18] (Table 3, CTCL) it was 1900 nM; in data set [19], 1700 nM; in [20] (Table 3, Prostate) it was 2300 nM; in data set [21] (Table 3, Breast), 4200 nM.

On to `CCC(CC)(NC(=O)/C(C#N)=C/c1cccc(Cl)n1)c1ccc(OCCOCCN2CCN(C)CC2)cc1` [WP1732], for which the IC50 worked out at 1800 nM in data set [1] (Homo sapiens, WM793, Table 3, Melanoma); 2600 nM in [2] (Homo sapiens, COLO 357/FG, 72 h, Table 3, Panc); 3800 nM in data set [3]; 1800 nM in data set [4] (Homo sapiens, SK-MEL-28, Table 3, Melanoma); 2300 nM in [5] (WM35, Table 3, Melanoma); 1500 nM in data set [6]. In addition, the IC50 in [7] (Homo sapiens, MIA PaCa-2, Table 3, Panc) is 1600 nM; in data set [22] it was 2800 nM; in data set [23], 2500 nM; in [8] (Homo sapiens, A-375, Table 3, Melanoma), 1100 nM; in data set [24], 2600 nM; in [25], 1400 nM. Moreover, the IC50 in data set [9] (Homo sapiens, SU.86.86, Table 3, Panc) was 1500 nM; in [10] it was 1800 nM; in [11] (Mus musculus, 4T1, Table 3, Breast) it was 4500 nM; in data set [12] it was 1600 nM; in data set [13] (Homo sapiens, HH), 3200 nM; in data set [14] it was 2300 nM. Besides, the IC50 in data set [15] (MDA-PATC53, 72 h, Table 3, Panc) came to 1800 nM; in data set [16] (Homo sapiens, OVCAR-5, Table 3, Ovarian) it was 1700 nM; in [17], 2800 nM; in [18] (Homo sapiens, HuT78, Table 3, CTCL), 2900 nM; in data set [26], 1900 nM; in data set [19] (Homo sapiens, U-87 MG) it was 1800 nM. The half-inhibitory concentration (IC50) in [20] (Homo sapiens, PC-3, Table 3, Prostate) came out at 1400 nM; in [21] (Homo sapiens, BT-483, Table 3, Breast) it was 2300 nM.

Regarding `CCC(CC)(NC(=O)/C(C#N)=C/c1cccc(Cl)n1)c1ccc(OCCN2CCOCC2)cc1` [WP 1721, (E)-3-(6-chloropyridin-2-yl)-2-cyano-N-(3-(4-(2-morpholinoethoxy)phenyl)pentan-3-yl)acrylamide], the IC50 in data set [2] (setting [27]) and in data set [15] (setting [28]) was 1100 nM throughout.

As to `CCN(CC)CCOc1ccc(C(CC)(CC)NC(=O)/C(C#N)=C/c2cccc(Cl)n2)cc1` [WP 1722, (E)-3-(6-chloropyridin-2-yl)-2-cyano-N-(3-(4-(2-(diethylamino)ethoxy)phenyl)pentan-3-yl)acrylamide], the IC50 in [2] (Table 2, Colo357-FG) turned out to be 1200 nM; in [15] (Table 2, MDA-PATC-53), 1100 nM.

For `CCC(CC)(NC(=O)/C(C#N)=C/c1cccc(Cl)n1)c1ccc(OCCOCCN2CCOCC2)cc1` [WP 1723, (E)-3-(6-chloropyridin-2-yl)-2-cyano-N-(3-(4-(2-(2-morpholinoethoxy)ethoxy)phenyl)pentan-3-yl)acrylamide], the IC50 in [2] (setting [27]) came to 1200 nM; in [15] (setting [28]), 1400 nM.

`CCC(CC)(NC(=O)/C(C#N)=C/c1ccccn1)c1ccc(OCCOCCN2CCOCC2)cc1` [WP 1724, (E)-2-cyano-N-(3-(4-(2-(2-morpholinoethoxy)ethoxy)phenyl)pentan-3-yl)-3-(pyridin-2-yl)acrylamide]: the IC50 in [2] (setting [27]) amounted to 2800 nM; in data set [15] (setting [28]) it was 3500 nM.

Consider `CCN(CC)CCOc1ccc(C(CC)(CC)NC(=O)/C(C#N)=C/c2ccccn2)cc1` [WP 1727, (E)-2-cyano-N-(3-(4-(2-(diethylamino)ethoxy)phenyl)pentan-3-yl)-3-(pyridin-2-yl)acrylamide], for which the IC50 was 2200 nM in data set [2] (setting [27]) and 3000 nM in [15] (setting [28]).

Turning to `CCC(CC)(NC(=O)/C(C#N)=C/c1cccc(Cl)n1)c1ccc(OCCOCCN2CCN(C)CC2)cc1` [WP 1731, (E)-3-(6-chloropyridin-2-yl)-2-cyano-N-(3-(4-(2-(2-(4-methylpiperazin-1-yl)ethoxy)ethoxy)phenyl)pentan-3-yl)acrylamide], the IC50 is 1500 nM in [2] (setting [27]) and 1800 nM in [15] (setting [28]).

`CCCC(CCC)(NC(=O)/C(C#N)=C/c1cccc(Cl)n1)c1ccc(OCCN2CCOCC2)cc1` [WP 1733, (E)-3-(6-chloropyridin-2-yl)-2-cyano-N-(4-(4-(2-morpholinoethoxy)phenyl)heptan-4-yl)acrylamide]: the figures for the IC50 in data set [2] (setting [27]) and in data set [15] (setting [28]) were 950 nM and 1100 nM, respectively.

Take `CCCC(CCC)(NC(=O)/C(C#N)=C/c1cccc(Cl)n1)c1ccc(OCCN(CC)CC)cc1` [WP 1734, (E)-3-(6-chloropyridin-2-yl)-2-cyano-N-(4-(4-(2-(diethylamino)ethoxy)phenyl)heptan-4-yl)acrylamide]: the IC50 in data set [2] (setting [27]) worked out at 1500 nM; in [15] (setting [28]), 1600 nM.

`CCC(CC)(NC(=O)/C(C#N)=C/c1cccc(Cl)n1)c1ccc(OCCN2CCOCC2)cc1` [WP 1793]: the concentration for half-maximal inhibition (IC50) in data set [2] (Table 2, Colo357-FG) amounted to 800 nM; in data set [15] (Table 2, MDA-PATC-53), 1000 nM.

Take `CCN(CC)CCOc1ccc(C(CC)(CC)NC(=O)/C(C#N)=C/c2cccc(Cl)n2)cc1` [WP 1794]: the results for the half-maximal inhibitory concentration (IC50) in data set [2] (setting [27]) and in [15] (setting [28]) were 600 nM and 900 nM, respectively.

(Values after patent US10703721B2, “Caffeic acid derivatives and uses thereof” (Board of Regents, The University of Texas System, priority 2017, dated 2020).)
